Assay results taken from patent US20260146038A1, “NOVEL SALT OF DIMETHYL-2,3-DIHYDRO-1H-INDENE DERIVATIVE AND PROCESSES FOR PREPARING THE SAME” (YUHAN CORPORATION, priority 2022, published 2026).

Tests used:
Format in all cases: physicochemical
[1] = Hygroscopicity evaluation by Dynamic Vapor Sorption (DVS)
[2] = Photostability test according to ICH guideline Q1B; conditions: for Water contents: Karl Fischer
Experimental: Photostability tests were carried out according to ICH guideline Q1B. […] The results obtained by measuring purities (the HPLC purities) and water contents (by Karl Fischer method) are shown in Table 2 below.

[3] = Stability test (accelerated condition); conditions: for Water contents: Karl Fischer; for Water contents / HPLC purity: accelerated condition (40±2° C., 75±5% RH)
Source text: The results obtained by measuring purities (the HPLC purities) and water contents (by Karl Fischer method) are shown in Table 1 below.

[4] = Water-solubility evaluation; conditions: 20° C.

## ((1S,4R)-7,7-dimethyl-2-oxobicyclo[2.2.1]heptan-1-yl)methanesulfonic acid salt of (S)-quinuclidin-3-yl ((R)-5-(3-chloro-4-isopropoxyphenyl)-2,2-dimethyl-2,3-dihydro-1H-inden-1-yl)carbamate [Example 1]
[1]; weight change, room temperature (about 25° C.), RH 80%, 24 hours
  Moisture adsorption: 2.3%
[2]; Initial
  HPLC purity: 98.6%
  Water contents: 0.48%
[2]; Light exposure (UV light for 10 hours / visible light for 40 hours)
  Water contents: 0.31%
[2]; Light exposure (UV light 20 W/m^2 for 10 hours / visible light 30,000 lux for 40 hours)
  HPLC purity: 98.6%
[3]; 40±2° C., 75±5% RH, up to 3 months
  difference in the water contents under the accelerated condition: ≤ 1.0%
[3]; 40±2° C., 75±5% RH, FIGS. 5 and 6
  stability by XRD and appearance under the accelerated condition: excellent stability
[3]; 1 month
  Water contents: 0.32%
  HPLC purity: 98.6%
[3]; 3 months
  Water contents: 1.28%
  HPLC purity: 98.6%
[3]; Initial
  Water contents: 0.48%
  HPLC purity: 98.6%

## CC(C)Oc1ccc(-c2ccc3c(c2)CC(C)(C)C3NC(=O)O[C@@H]2CN3CCC2CC3)cc1Cl (stereo partly drawn) [Compound of WO 2021/096238, (S)-quinuclidin-3-yl (5-(3-chloro-4-isopropoxyphenyl)-2,2-dimethyl-2,3-dihydro-1H-inden-1-yl)carbamate, reference compound]
[1]; amorphous free base
  hygroscopicity (in words): high hygroscopicity
[4]
  solubility: < 10 µg/mL
[3]; amorphous free base
  stability (form changes) in the accelerated condition: low stability
